According to patent US20160168540A1, “COMPOSITION FOR MAINTAINING PLATELET FUNCTION” (KYOTO UNIVERSITY, priority 2013, published 2016):

Target: T1, TACE (ADAM17) (Homo sapiens, UniProt P78536)
T1 construct: made in house; host or cells: mammalian cells or insect cells
Test: TACE (ADAM17) inhibition test
Format: biochemical
Settings: fluorescent synthetic substrate, 37° C. for 1.5 hours; read-out: TACE IC50
Description: The nucleotide sequence of TACE has been reported by Moss et al. (Moss, M. L. et al., Nature 1997, vol. 385, pp. 733-736). Based on this information, the cDNA of TACE was obtained according to the prescribed method from THP-1 cells or the like, and then incorporated the cDNA into an expression vector. Next, this vector was transformed into mammalian cells or insect cells, and TACE protein was expressed. The TACE protein was isolated, and used as an enzyme. Further, a fluorescent synthetic substrate Nma(N-methylanthranilic acid)-Leu-Ala-Gln-Ala-Val-Arg-Ser-Ser-Lys(Dnp(dinitrophenyl))-D-Arg-NH2 including the TACE-cleaved sequence of a membrane-bound TNF was used as a substrate. The enzyme reaction was carried out by adding 1.8 μL of a solution of the test substance to 90 μL of a fluorescent synthetic substrate prepared with an assay buffer B (50 mM tris-hydrochloric acid buffer (pH 7.5) including 200 mM sodium chloride, 5 mM calcium chloride, 10 μM zinc sulfate, and 0.05% PLURONIC F-68), then mixing 90 μL of a TACE enzyme solution prepared with an assay buffer A (50 mM tris-hydrochloric acid buffer (pH 7.5) including 200 mM sodium chloride, 5 mM calcium chloride, 10 μM zinc sulfate, and 2 mg/mL bovine serum albumin) and reacting at 37° C. for 1.5 hours. Enzyme activity was then determined by measuring with a fluorescence intensity meter (Labsystems, Fluoroskan Ascent) at an excitation wavelength of 355 nm and a measurement wavelength of 460 nm. The 50% inhibitory concentration (IC50) of the test substances was calculated by comparing enzyme activity in the presence and the absence of the test substance to determine the inhibition rate. Further, test substances having an IC50 strength of less than 100 nM were evaluated as “A”, and test substances having an IC50 strength of 100 nM or more were evaluated as “B”.

T1 sequence (P78536 215-824): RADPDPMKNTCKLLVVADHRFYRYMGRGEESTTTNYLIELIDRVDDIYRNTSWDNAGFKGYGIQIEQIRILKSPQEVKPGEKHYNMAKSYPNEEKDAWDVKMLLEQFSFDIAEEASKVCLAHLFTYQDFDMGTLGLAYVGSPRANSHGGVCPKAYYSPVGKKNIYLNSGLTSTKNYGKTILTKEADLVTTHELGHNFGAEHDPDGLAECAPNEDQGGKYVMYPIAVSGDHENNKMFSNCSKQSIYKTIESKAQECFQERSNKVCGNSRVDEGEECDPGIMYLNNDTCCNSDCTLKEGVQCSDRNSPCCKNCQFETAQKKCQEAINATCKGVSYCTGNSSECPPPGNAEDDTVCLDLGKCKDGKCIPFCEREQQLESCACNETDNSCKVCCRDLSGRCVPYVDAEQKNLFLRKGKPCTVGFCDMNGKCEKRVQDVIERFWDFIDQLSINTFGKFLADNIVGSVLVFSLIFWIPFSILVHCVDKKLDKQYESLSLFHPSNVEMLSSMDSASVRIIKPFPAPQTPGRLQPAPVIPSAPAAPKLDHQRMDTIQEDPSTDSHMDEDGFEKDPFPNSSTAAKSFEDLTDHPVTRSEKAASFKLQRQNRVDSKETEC

SMILES | IC50 [nM]
Cc1cccn(CC2(c3ccccc3)NC(=O)NC2=O)c1=O (racemic) [Compound I-1, 5-[(3-methyl-2-oxopyridin-1(2H)-yl)methyl]-5-phenyl-imidazolidine-2,4-dione] | < 100
COc1ccc(C2(Cn3cccc(C)c3=O)NC(=O)NC2=O)cc1 (racemic) [Compound I-2, 5-(4-methoxyphenyl)-5-[(3-methyl-2-oxopyridin-1(2H)-yl)methyl]imidazolidine-2,4-dione] | < 100
Cc1cccn(CC2(c3ccc(C#N)cc3)NC(=O)NC2=O)c1=O (racemic) [Compound I-3, 4-{4-[(3-methyl-2-oxopyridin-1(2H)-yl)methyl]-2,5-dioxoimidazolidine-4-yl}benzonitrile] | < 100
COc1cccc(C2(Cn3cccc(C)c3=O)NC(=O)NC2=O)c1 (racemic) [Compound I-4, 5-(3-methoxyphenyl)-5-[(3-methyl-2-oxopyridin-1(2H)-yl)methyl]imidazolidine-2,4-dione] | < 100
Cc1cccn(CC2(c3ccsc3)NC(=O)NC2=O)c1=O (racemic) [Compound I-5, 5-[(3-methyl-2-oxopyridin-1(2H)-yl)methyl]-5-(thiophen-3-yl)imidazolidine-2,4-dione] | < 100
Cc1cccn(CC2(c3cc4ccccc4o3)NC(=O)NC2=O)c1=O (racemic) [Compound I-6, 5-(benzofuran-2-yl)-5-[(3-methyl-2-oxopyridin-1(2H)-yl)methyl]imidazolidine-2,4-dione] | < 100
Cc1cccn(CC2(c3ccccn3)NC(=O)NC2=O)c1=O (racemic) [Compound I-7, 5-[(3-methyl-2-oxopyridin-1(2H)-yl)methyl]-5-(pyridin-2-yl)imidazolidine-2,4-dione] | < 100
Cc1cccn(CC2(c3cccnc3)NC(=O)NC2=O)c1=O (racemic) [Compound I-8, 5-[(3-methyl-2-oxopyridin-1(2H)-yl)methyl]-5-(pyridin-3-yl)imidazolidine-2,4-dione] | < 100
Cc1cccn(CC2(c3ccc(Oc4ccccc4)cc3)NC(=O)NC2=O)c1=O (racemic) [Compound I-9, 5-[(3-methyl-2-oxopyridin-1(2H)-yl)methyl]-5-(4-phenoxyphenyl)imidazolidine-2,4-dione] | < 100
Cc1cccn(CC2(c3ccc(F)c(F)c3)NC(=O)NC2=O)c1=O (racemic) [Compound I-10, 5-(3,4-difluorophenyl)-5-[(3-methyl-2-oxopyridin-1(2H)-yl)methyl]imidazolidine-2,4-dione] | < 100
Cc1cccn(CC2(c3ccc(Br)cc3)NC(=O)NC2=O)c1=O (racemic) [Compound I-11, 5-(4-bromophenyl)-5-[(3-methyl-2-oxopyridin-1(2H)-yl)methyl]imidazolidine-2,4-dione] | < 100
COc1cc(C2(Cn3cccc(C)c3=O)NC(=O)NC2=O)ccc1F (racemic) [Compound I-12, 5-(4-fluoro-3-methoxyphenyl)-5-[(3-methyl-2-oxopyridin-1(2H)-yl)methyl]imidazolidine-2,4-dione] | < 100
COCOc1ccc(C2(Cn3cccc(C)c3=O)NC(=O)NC2=O)cc1 (racemic) [Compound I-13, 5-[4-(methoxymethoxy)phenyl]-5-[(3-methyl-2-oxopyridin-1(2H)-yl)methyl]imidazolidine-2,4-dione] | < 100
COc1ccc(C2(Cn3cccc(C)c3=O)NC(=O)NC2=O)cc1F (racemic) [Compound I-14, 5-(3-fluoro-4-methoxyphenyl)-5-[(3-methyl-2-oxopyridin-1(2H)-yl)methyl]imidazolidine-2,4-dione] | < 100
Cc1cccn(CC2(c3ccc(F)cc3)NC(=O)NC2=O)c1=O (racemic) [Compound I-15, 5-(4-fluorophenyl)-5-[(3-methyl-2-oxopyridin-1(2H)-yl)methyl]imidazolidine-2,4-dione] | < 100
COc1ccc(C2(Cn3cccc(C)c3=O)NC(=O)NC2=O)cc1OC (racemic) [Compound I-16, 5-(3,4-dimethoxyphenyl)-5-[(3-methyl-2-oxopyridin-1(2H)-yl)methyl]imidazolidine-2,4-dione] | < 100
Cc1cccn(CC2(c3ccc(C(C)(C)C)cc3)NC(=O)NC2=O)c1=O (racemic) [Compound I-17, 5-[4-(tert-butyl)phenyl]-5-[(3-methyl-2-oxopyridin-1(2H)-yl)methyl]imidazolidine-2,4-dione] | < 100

SMILES | IC50 [nM]
COc1ccc(C2(Cn3cccc(C)c3=O)NC(=O)NC2=O)c(OC)c1 (racemic) [Compound I-18, 5-(2,4-dimethoxyphenyl)-5-[(3-methyl-2-oxopyridin-1(2H)-yl)methyl]imidazolidine-2,4-dione] | < 100
Cc1cccn(CC2(c3cccc(C(F)(F)F)c3)NC(=O)NC2=O)c1=O (racemic) [Compound I-19] | < 100
COc1ccc(OC)c(C2(Cn3cccc(C)c3=O)NC(=O)NC2=O)c1 (racemic) [Compound I-20, 5-(2,5-dimethoxyphenyl)-5-[(3-methyl-2-oxopyridin-1(2H)-yl)methyl]imidazolidine-2,4-dione] | < 100
COc1cc(F)ccc1C1(Cn2cccc(C)c2=O)NC(=O)NC1=O (racemic) [Compound I-21, 5-(4-fluoro-2-methoxyphenyl)-5-[(3-methyl-2-oxopyridin-1(2H)-yl)methyl]imidazolidine-2,4-dione] | < 100
Cc1cccn(CC2(c3ccc4occc4c3)NC(=O)NC2=O)c1=O (racemic) [Compound I-22, 5-(benzofuran-5-yl)-5-[(3-methyl-2-oxopyridin-1(2H)-yl)methyl]imidazolidine-2,4-dione] | < 100
Cc1cccn(CC2(c3ccc4sccc4c3)NC(=O)NC2=O)c1=O (racemic) [Compound I-23, 5-(benzo[b]thiophen-5-yl)-5-[(3-methyl-2-oxopyridin-1(2H)-yl)methyl]imidazolidine-2,4-dione] | < 100
COc1ccc(OC(F)(F)F)cc1C1(Cn2cccc(C)c2=O)NC(=O)NC1=O (racemic) [Compound I-24, 5-[2-methoxy-5-(trifluoromethoxy)phenyl]-5-[(3-methyl-2-oxopyridin-1(2H)-yl)methyl]imidazolidine-2,4-dione] | ≥ 100
Cc1cccn(CC2(c3ccc(S(C)(=O)=O)cc3)NC(=O)NC2=O)c1=O (racemic) [Compound I-25, 5-[(3-methyl-2-oxopyridin-1(2H)-yl)methyl]-5-[4-(methylsulfonyl)phenyl]imidazolidine-2,4-dione] | < 100
Cc1cccn(CC2(c3ccc4c(c3)CCCO4)NC(=O)NC2=O)c1=O (racemic) [Compound I-26, 5-(chroman-6-yl)-5-[(3-methyl-2-oxopyridin-1(2H)-yl)methyl]imidazolidine-2,4-dione] | < 100
COc1ccc(Cl)cc1C1(Cn2cccc(C)c2=O)NC(=O)NC1=O (racemic) [Compound I-27, 5-(5-chloro-2-methoxyphenyl)-5-[(3-methyl-2-oxopyridin-1(2H)-yl)methyl]imidazolidine-2,4-dione] | < 100
Cc1cccn(CC2(c3cccc(F)c3)NC(=O)NC2=O)c1=O (racemic) [Compound I-28, 5-(3-fluorophenyl)-5-[(3-methyl-2-oxopyridin-1(2H)-yl)methyl]imidazolidine-2,4-dione] | < 100
Cc1cccn(CC2(c3cc(F)c(F)cc3F)NC(=O)NC2=O)c1=O (racemic) [Compound I-29, 5-[(3-methyl-2-oxopyridin-1(2H)-yl)methyl]-5-(2,4,5-trifluorophenyl)imidazolidine-2,4-dione] | < 100
Cc1cc(C2(Cn3cccc(C)c3=O)NC(=O)NC2=O)ccc1F (racemic) [Compound I-30, 5-(4-fluoro-3-methylphenyl)-5-[(3-methyl-2-oxopyridin-1(2H)-yl)methyl]imidazolidine-2,4-dione] | < 100
Cc1cccn(CC2(c3ccc(-c4ccncc4)cc3)NC(=O)NC2=O)c1=O (racemic) [Compound I-31, 5-[(3-methyl-2-oxopyridin-1(2H)-yl)methyl]-5-[4-(pyridin-4-yl)phenyl]imidazolidine-2,4-dione] | < 100
Cc1cccn(CC2(c3ccc(-c4cccnc4)cc3)NC(=O)NC2=O)c1=O (racemic) [Compound I-32, 5-[(3-methyl-2-oxopyridin-1(2H)-yl)methyl]-5-[4-(pyridin-3-yl)phenyl]imidazolidine-2,4-dione] | < 100
Cc1cccn(CC2(c3ccc(C#CC(C)(C)C)cc3)NC(=O)NC2=O)c1=O (racemic) [Compound I-33, 5-[4-(3,3-dimethylbut-1-yn-1-yl)phenyl]-5-[(3-methyl-2-oxopyridin-1(2H)-yl)methyl]imidazolidine-2,4-dione] | < 100
Cc1ccc(Oc2ccc(C3(Cn4cccc(C)c4=O)NC(=O)NC3=O)cc2)cc1 (racemic) [Compound I-34, 5-[(3-methyl-2-oxopyridin-1(2H)-yl)methyl]-5-[4-(p-tolyloxy)phenyl]imidazolidine-2,4-dione] | < 100
